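Cultured in 96-well plates, cells were exposed to test compound for 48 hours across five concentrations. GI50: concentration for 50% inhibition of growth. TGI denotes the concentration required for complete inhibition of growth.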
Key:
Assay in all cases: DTP human tumour cell line panel, 48 h
SR leukemia = tested on: SR leukemia
UACC-62 melanoma = tested on: UACC-62 melanoma
MALME-3M melanoma = tested on: MALME-3M melanoma
IGROV1 ovarian = tested on: IGROV1 ovarian
ACHN renal = tested on: ACHN renal
SN12C renal = tested on: SN12C renal
SF-268 CNS = tested on: SF-268 CNS
CCRF-CEM leukemia = tested on: CCRF-CEM leukemia
M14 melanoma = tested on: M14 melanoma
COLO 205 colon = tested on: COLO 205 colon
SK-MEL-2 melanoma = tested on: SK-MEL-2 melanoma
HL-60(TB) leukemia = tested on: HL-60(TB) leukemia
LOX IMVI melanoma = tested on: LOX IMVI melanoma
BT-549 breast = tested on: BT-549 breast
SK-OV-3 ovarian = tested on: SK-OV-3 ovarian
T-47D breast = tested on: T-47D breast
SK-MEL-28 melanoma = tested on: SK-MEL-28 melanoma
MCF7 breast = tested on: MCF7 breast
HCT-116 colon = tested on: HCT-116 colon
SW-620 colon = tested on: SW-620 colon
PC-3 prostate = tested on: PC-3 prostate
OVCAR-3 ovarian = tested on: OVCAR-3 ovarian
HS 578T breast = tested on: HS 578T breast
K-562 leukemia = tested on: K-562 leukemia
NCI-H226 lung = tested on: NCI-H226 lung
TK-10 renal = tested on: TK-10 renal
SNB-19 CNS = tested on: SNB-19 CNS
SNB-75 CNS = tested on: SNB-75 CNS
HCC-2998 colon = tested on: HCC-2998 colon
786-0 renal = tested on: 786-0 renal
OVCAR-4 ovarian = tested on: OVCAR-4 ovarian
A549 NSCLC = tested on: A549 NSCLC
A498 renal = tested on: A498 renal
OVCAR-8 ovarian = tested on: OVCAR-8 ovarian
NCI-H522 lung = tested on: NCI-H522 lung
U251 CNS = tested on: U251 CNS
MDA-MB-231 breast = tested on: MDA-MB-231 breast
DU-145 prostate = tested on: DU-145 prostate
SF-295 CNS = tested on: SF-295 CNS
HT29 colon = tested on: HT29 colon
SK-MEL-5 melanoma = tested on: SK-MEL-5 melanoma
KM12 colon = tested on: KM12 colon
HOP-92 NSCLC = tested on: HOP-92 NSCLC
CAKI-1 renal = tested on: CAKI-1 renal
HCT-15 colon = tested on: HCT-15 colon
NCI-H460 lung = tested on: NCI-H460 lung
RXF 393 renal = tested on: RXF 393 renal
MOLT-4 leukemia = tested on: MOLT-4 leukemia
SF-539 CNS = tested on: SF-539 CNS
OVCAR-5 ovarian = tested on: OVCAR-5 ovarian
UO-31 renal = tested on: UO-31 renal
RPMI-8226 leukemia = tested on: RPMI-8226 leukemia
NCI-H23 lung = tested on: NCI-H23 lung
HOP-62 NSCLC = tested on: HOP-62 NSCLC
NCI/ADR-RES ovarian = tested on: NCI/ADR-RES ovarian
UACC-257 melanoma = tested on: UACC-257 melanoma
MDA-MB-435 = tested on: MDA-MB-435

SMILES: COc1ccccc1C(=O)c1cnc(NC2CCN(S(C)(=O)=O)CC2)nc1N
- GI50 (SR leukemia): 2 µM
- TGI (SR leukemia): > 19.5 µM
- GI50 (UACC-62 melanoma): 6.68 µM
- TGI (UACC-62 melanoma): > 25 µM
- GI50 (MALME-3M melanoma): > 16.4 µM
- TGI (MALME-3M melanoma): > 25 µM
- GI50 (IGROV1 ovarian): 8.05 µM
- TGI (IGROV1 ovarian): > 25 µM
- GI50 (ACHN renal): 4.68 µM
- TGI (ACHN renal): > 25 µM
- GI50 (SN12C renal): 5.48 µM
- TGI (SN12C renal): > 25 µM
- GI50 (SF-268 CNS): 7.35 µM
- TGI (SF-268 CNS): > 25 µM
- GI50 (CCRF-CEM leukemia): 7.04 µM
- TGI (CCRF-CEM leukemia): > 24.1 µM
- GI50 (M14 melanoma): 10.2 µM
- TGI (M14 melanoma): > 25 µM
- GI50 (COLO 205 colon): 4.37 µM
- TGI (COLO 205 colon): > 15.4 µM
- GI50 (SK-MEL-2 melanoma): 9.93 µM
- TGI (SK-MEL-2 melanoma): > 25 µM
- GI50 (HL-60(TB) leukemia): 3.96 µM
- TGI (HL-60(TB) leukemia): 14.3 µM
- GI50 (LOX IMVI melanoma): 6.25 µM
- TGI (LOX IMVI melanoma): > 25 µM
- GI50 (BT-549 breast): > 13.3 µM
- TGI (BT-549 breast): > 25 µM
- GI50 (SK-OV-3 ovarian): > 25 µM
- TGI (SK-OV-3 ovarian): > 25 µM
- GI50 (T-47D breast): 8.8 µM
- TGI (T-47D breast): > 25 µM
- GI50 (SK-MEL-28 melanoma): 6.38 µM
- TGI (SK-MEL-28 melanoma): > 25 µM
- GI50 (MCF7 breast): 1.19 µM
- TGI (MCF7 breast): > 25 µM
- GI50 (HCT-116 colon): 4.52 µM
- TGI (HCT-116 colon): > 25 µM
- GI50 (SW-620 colon): 4.33 µM
- TGI (SW-620 colon): > 25 µM
- GI50 (PC-3 prostate): 3.48 µM
- TGI (PC-3 prostate): > 25 µM
- GI50 (OVCAR-3 ovarian): 9.15 µM
- TGI (OVCAR-3 ovarian): > 25 µM
- GI50 (HS 578T breast): 11.4 µM
- TGI (HS 578T breast): > 25 µM
- GI50 (K-562 leukemia): > 25 µM
- TGI (K-562 leukemia): > 25 µM
- GI50 (NCI-H226 lung): 4.62 µM
- TGI (NCI-H226 lung): > 23.1 µM
- GI50 (TK-10 renal): 5.92 µM
- TGI (TK-10 renal): > 25 µM
- GI50 (SNB-19 CNS): 4.71 µM
- TGI (SNB-19 CNS): > 25 µM
- GI50 (SNB-75 CNS): 7.57 µM
- TGI (SNB-75 CNS): > 25 µM
- GI50 (HCC-2998 colon): 13 µM
- TGI (HCC-2998 colon): > 25 µM
- GI50 (786-0 renal): 8.15 µM
- TGI (786-0 renal): > 25 µM
- GI50 (OVCAR-4 ovarian): 12.4 µM
- TGI (OVCAR-4 ovarian): > 25 µM
- GI50 (A549 NSCLC): 4.68 µM
- TGI (A549 NSCLC): > 25 µM
- GI50 (A498 renal): 6 µM
- TGI (A498 renal): 22 µM
- GI50 (OVCAR-8 ovarian): 6.97 µM
- TGI (OVCAR-8 ovarian): > 25 µM
- GI50 (NCI-H522 lung): > 25 µM
- TGI (NCI-H522 lung): > 25 µM
- GI50 (U251 CNS): 4.06 µM
- TGI (U251 CNS): > 25 µM
- GI50 (MDA-MB-231 breast): 7.27 µM
- TGI (MDA-MB-231 breast): > 25 µM
- GI50 (DU-145 prostate): 6.51 µM
- TGI (DU-145 prostate): > 25 µM
- GI50 (SF-295 CNS): 5.5 µM
- TGI (SF-295 CNS): > 25 µM
- GI50 (HT29 colon): 6.27 µM
- TGI (HT29 colon): > 25 µM
- GI50 (SK-MEL-5 melanoma): 4.84 µM
- TGI (SK-MEL-5 melanoma): > 25 µM
- GI50 (KM12 colon): 5.74 µM
- TGI (KM12 colon): > 25 µM
- GI50 (HOP-92 NSCLC): 6.14 µM
- TGI (HOP-92 NSCLC): > 22.9 µM
- GI50 (CAKI-1 renal): 5.84 µM
- TGI (CAKI-1 renal): > 25 µM
- GI50 (HCT-15 colon): 6.28 µM
- TGI (HCT-15 colon): > 25 µM
- GI50 (NCI-H460 lung): 2.85 µM
- TGI (NCI-H460 lung): > 25 µM
- GI50 (RXF 393 renal): 4.4 µM
- TGI (RXF 393 renal): 10.5 µM
- GI50 (MOLT-4 leukemia): 6.43 µM
- TGI (MOLT-4 leukemia): > 25 µM
- GI50 (SF-539 CNS): 4.97 µM
- TGI (SF-539 CNS): 15.2 µM
- GI50 (OVCAR-5 ovarian): 4.92 µM
- TGI (OVCAR-5 ovarian): > 25 µM
- GI50 (UO-31 renal): 7.43 µM
- TGI (UO-31 renal): > 25 µM
- GI50 (RPMI-8226 leukemia): 6.57 µM
- TGI (RPMI-8226 leukemia): > 25 µM
- GI50 (NCI-H23 lung): 5.71 µM
- TGI (NCI-H23 lung): > 25 µM
- GI50 (HOP-62 NSCLC): 7.73 µM
- TGI (HOP-62 NSCLC): > 25 µM
- GI50 (NCI/ADR-RES ovarian): > 25 µM
- TGI (NCI/ADR-RES ovarian): > 25 µM
- GI50 (UACC-257 melanoma): 11.6 µM
- TGI (UACC-257 melanoma): > 25 µM
- GI50 (MDA-MB-435): 4.83 µM
- TGI (MDA-MB-435): > 25 µM
